From patent publication US6534505B2, “Therapeutic polymorphs of a GABA-A alpha-5 inverse agonist and pamoate formulations of the same” (Merck & Co., Inc., priority 1998, dated 2003)
Converted amounts (≈) assume the structure as drawn.

Legend:
[1] = tested on: receptor; assay: receptor occupancy at the minimum effective dose; format: in vivo, rat; settings: at the minimum effective dose of 0.3 mg/kg
[2] = exposure of the anhydrous form to pure water (XRPD of solids); format: physicochemical
Protocol: To an Eppendorf tube was added 1 mL USP water and 20 mg 3-(5-methylisoxazol-3-yl)-6-(1-methyl-1,2, 3-triazol-4-yl)methyloxy-1,2, 4-triazolo[3,4-a]phthalazine. The resulting suspension was vortexed for 10 seconds, then light protected with aluminium foil and placed on a rotary mixer for 72 hours. The solids were then vacuum filtered off and rinsed with 2xl mL water. Solids were partially wet when first analyzed by XRPD, afterward they were dried by house vacuum for 48 hours before more XRPD analysis.
The XRPD data have been described earlier with the exception of the incompletely converted material from the synthesis in water. […] Conversion may take place more rapidly if solubility is increased by the addition of di-sodium pamoate or by other means. The di-hydrate may also be prepared using a 10% solution of MeCN in water.

[3] = target: T1, human GABAA receptors containing the α5 subunit stably expressed in Ltk cells (Homo sapiens, UniProt P18507+P31644); assay: displacement of [3H]-flumazenil ([3H]Ro 15-1788) from the benzodiazepine binding site; settings: read-out: Ki value for displacement of [3H]Ro 15-1788 from the α5 subunit of the human GABAA receptor
T1 construct: expressed in transfected cells; host or cells: Ltk cells (mouse fibroblasts), stably expressing
T1 sequence (P31644 32-462): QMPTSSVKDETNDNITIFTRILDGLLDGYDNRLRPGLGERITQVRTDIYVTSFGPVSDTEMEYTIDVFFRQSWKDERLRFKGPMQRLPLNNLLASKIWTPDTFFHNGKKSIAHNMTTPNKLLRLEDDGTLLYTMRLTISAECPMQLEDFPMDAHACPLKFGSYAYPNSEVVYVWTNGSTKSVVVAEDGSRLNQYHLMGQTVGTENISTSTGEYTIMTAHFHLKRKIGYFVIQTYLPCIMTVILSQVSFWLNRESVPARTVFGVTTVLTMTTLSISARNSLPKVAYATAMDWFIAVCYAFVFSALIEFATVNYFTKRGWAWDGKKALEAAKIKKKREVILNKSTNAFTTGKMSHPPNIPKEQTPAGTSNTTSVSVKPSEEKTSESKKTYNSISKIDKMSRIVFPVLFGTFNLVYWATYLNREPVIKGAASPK
T1 sequence (P18507 40-467 limits assumed): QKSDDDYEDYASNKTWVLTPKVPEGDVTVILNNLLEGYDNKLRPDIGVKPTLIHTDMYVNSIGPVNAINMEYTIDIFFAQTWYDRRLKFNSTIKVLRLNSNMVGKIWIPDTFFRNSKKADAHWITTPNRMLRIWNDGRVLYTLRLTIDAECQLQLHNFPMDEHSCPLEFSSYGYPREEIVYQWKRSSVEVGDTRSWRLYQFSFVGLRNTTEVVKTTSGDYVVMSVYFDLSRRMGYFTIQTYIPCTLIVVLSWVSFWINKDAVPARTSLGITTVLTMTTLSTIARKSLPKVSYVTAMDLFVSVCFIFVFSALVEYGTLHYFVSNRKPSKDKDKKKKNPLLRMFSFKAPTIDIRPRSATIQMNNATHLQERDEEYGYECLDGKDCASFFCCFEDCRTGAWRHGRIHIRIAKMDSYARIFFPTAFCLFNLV
T1 sequence (P28472 26-473 partner): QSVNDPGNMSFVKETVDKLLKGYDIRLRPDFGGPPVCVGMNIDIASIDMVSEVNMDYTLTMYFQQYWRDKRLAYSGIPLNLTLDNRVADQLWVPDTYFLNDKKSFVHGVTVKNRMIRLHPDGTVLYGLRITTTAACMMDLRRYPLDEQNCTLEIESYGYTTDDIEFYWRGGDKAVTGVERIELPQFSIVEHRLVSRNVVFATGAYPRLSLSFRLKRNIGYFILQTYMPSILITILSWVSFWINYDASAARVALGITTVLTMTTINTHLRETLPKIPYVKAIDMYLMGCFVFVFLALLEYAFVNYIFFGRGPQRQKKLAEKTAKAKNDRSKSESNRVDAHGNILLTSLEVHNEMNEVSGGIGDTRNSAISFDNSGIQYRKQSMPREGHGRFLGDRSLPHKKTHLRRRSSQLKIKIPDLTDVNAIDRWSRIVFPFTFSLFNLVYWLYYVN

[4] = time dependent solubility in 2.5% aqueous di-sodium pamoate solution by HPLC; format: physicochemical
Protocol: To a stirred, light protected glass vial was added 23.0 mL 2.5% aqueous di-sodium pamoate solution and 42 mg 3-(5-methylisoxazol-3-yl)-6-(1-methyl-1,2,3-triazol-4-yl)methyloxy-1,2,4-triazolo[3,4-a]phthalazine. Aliquots were removed by 3 mL syringe at various time intervals, passed through 0.22 μm Millex-GV low protein binding syringe filters, and diluted to appropriate concentrations with 50/50 MeCN/H2O for HPLC analysis.

[5] = tested on: rat; assay: rat water maze test (cognition enhancement); format: in vivo

Q: What does the source list for `Cc1cc(-c2nnc3c4ccccc4c(OCc4cn(C)nn4)nn23)no1` [L-822, 179, 3-(5-methylisoxazol-3-yl)-6-(1-methyl-1,2,3-triazol-4-yl)methyloxy-1,2,4-triazolo[3,4-a]phthalazine]?
A: receptor occupancy [1]: 40%; solubility in pure water [2]: extreme insolubility; Ki [3]: ≤ 100 nM; solubility at 5 minutes ([4]; 2.5% aqueous di-sodium pamoate solution, aqueous with cosolvent or surfactant or cyclodextrin, thermodynamic from solid, 5 minutes (0.08 h), read-out: Concentration (solubility by HPLC)): 1890 µg/mL (≈ 5.22 mM); solubility at 90 minutes ([4]; 2.5% aqueous di-sodium pamoate solution, aqueous with cosolvent or surfactant or cyclodextrin, thermodynamic from solid, 90 minutes (1.50 h), read-out: Concentration (solubility by HPLC)): 1920 µg/mL (≈ 5.3 mM); solubility at 930 minutes ([4]; 2.5% aqueous di-sodium pamoate solution, aqueous with cosolvent or surfactant or cyclodextrin, thermodynamic from solid, 930 minutes (15.5 h), read-out: Concentration (solubility by HPLC)): 1410 µg/mL (≈ 3.89 mM); solubility at 1500 minutes ([4]; 2.5% aqueous di-sodium pamoate solution, aqueous with cosolvent or surfactant or cyclodextrin, thermodynamic from solid, 1500 minutes (25.0 h), read-out: Concentration (solubility by HPLC)): 1290 µg/mL (≈ 3.56 mM); solubility at 2910 minutes ([4]; 2.5% aqueous di-sodium pamoate solution, aqueous with cosolvent or surfactant or cyclodextrin, thermodynamic from solid, 2910 minutes (48.5 h), read-out: Concentration (solubility by HPLC)): 1240 µg/mL (≈ 3.42 mM); % of 5 Minute Value ([4]; 5 minutes (0.08 h)): 100.0%; % of 5 Minute Value ([4]; 90 minutes (1.50 h)): 101.4%; % of 5 Minute Value ([4]; 930 minutes (15.5 h)): 74.5%; % of 5 Minute Value ([4]; 1500 minutes (25.0 h)): 68.0%; % of 5 Minute Value ([4]; 2910 minutes (48.5 h)): 65.4%; decrease in solubility over time, % of the original solubility after 5 minutes ([4]; summary of Table 1): ~65%; minimum effective dose [5]: 0.3 mg/kg; enhancement of cognition ([5]; demonstrated at 0.3 mg/kg and 3 mg/kg): enhance cognition

Q: Which melting point does the source give for `Cc1cc(-c2nnc3c4ccccc4c(OCc4cccc(Br)n4)nn23)no1` [compound 2, 6-(6-Bromopyridin-2-yl)methyloxy-3-(5-methylisoxazol-3-yl)-1,2,4-triazolo[3,4-a]phthalazine] here?
A: Its melting point is 247.5 to 249 °C.
